In the supplement of paper PMC10307832:

Tests used:
Assay in all cases: relative viability (nuclei count vs DMSO), 5 days (fraction); higher = more cells survive
Seliciclib + Lapatinib = compound: CC[C@H](CO)Nc1nc(NCc2ccccc2)c2ncn(C(C)C)c2n1 [Seliciclib] + CS(=O)(=O)CCNCc1ccc(-c2ccc3ncnc(Nc4ccc(OCc5cccc(F)c5)c(Cl)c4)c3c2)o1 [Lapatinib] (partner 2 µM)
Summary of the method: (§1)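 Relative viability equals treated-well nuclei counts divided by vehicle-well nuclei counts. Counts came from 4× images of lung cancer cell lines grown in 1536-well plates for 5 days after pin-tool dosing on the day after seeding. Dosing used one drug alone or a fixed anchor-drug dose plus five library-drug doses (not always all listed) in √10 steps, and values are medians of duplicate plates.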

Seliciclib + Crizotinib = compound: CC[C@H](CO)Nc1nc(NCc2ccccc2)c2ncn(C(C)C)c2n1 [Seliciclib] + C[C@@H](Oc1cc(-c2cnn(C3CCNCC3)c2)cnc1N)c1c(Cl)ccc(F)c1Cl [Crizotinib] (partner 1 µM)
Summary of the method: as §1

Seliciclib + Tozasertib = compound: CC[C@H](CO)Nc1nc(NCc2ccccc2)c2ncn(C(C)C)c2n1 [Seliciclib] + Cc1cc(Nc2cc(N3CCN(C)CC3)nc(Sc3ccc(NC(=O)C4CC4)cc3)n2)n[nH]1 [Tozasertib] (partner 0.1 µM)
Summary of the method: as §1

Seliciclib + Decitabine = compound: CC[C@H](CO)Nc1nc(NCc2ccccc2)c2ncn(C(C)C)c2n1 [Seliciclib] + Nc1ncn([C@H]2C[C@H](O)[C@@H](CO)O2)c(=O)n1 [Decitabine] (partner 2 µM)
Summary of the method: as §1

| Cell Line | relative viability (Seliciclib + Lapatinib; first compound 0.08 µM) | relative viability (Seliciclib + Lapatinib; first compound 0.253 µM) | relative viability (Seliciclib + Lapatinib; first compound 0.8 µM) | relative viability (Seliciclib + Lapatinib; first compound 2.53 µM) | relative viability (Seliciclib + Lapatinib; first compound 8 µM) | relative viability (Seliciclib + Crizotinib; first compound 0.08 µM) | relative viability (Seliciclib + Crizotinib; first compound 0.253 µM) | relative viability (Seliciclib + Crizotinib; first compound 0.8 µM) | relative viability (Seliciclib + Crizotinib; first compound 2.53 µM) | relative viability (Seliciclib + Crizotinib; first compound 8 µM) | relative viability (Seliciclib + Tozasertib; first compound 0.08 µM) | relative viability (Seliciclib + Tozasertib; first compound 0.253 µM) | relative viability (Seliciclib + Tozasertib; first compound 0.8 µM) | relative viability (Seliciclib + Tozasertib; first compound 2.53 µM) | relative viability (Seliciclib + Tozasertib; first compound 8 µM) | relative viability (Seliciclib + Decitabine; first compound 0.08 µM) | relative viability (Seliciclib + Decitabine; first compound 0.253 µM) | relative viability (Seliciclib + Decitabine; first compound 0.8 µM) | relative viability (Seliciclib + Decitabine; first compound 2.53 µM) | relative viability (Seliciclib + Decitabine; first compound 8 µM) |
| --- | --- | --- | --- | --- | --- | --- | --- | --- | --- | --- | --- | --- | --- | --- | --- | --- | --- | --- | --- | --- |
| NCI-H727 | 0.936 | 0.75 | 0.556 | 0.518 | 0.634 | 0.813 | 0.882 | 0.777 | 0.829 | 0.823 | 0.616 | 0.89 | 0.528 | 0.557 | 0.487 | 0.874 | 0.88 | 0.82 | 0.441 | 0.861 |
| NCI-H838 | 0.967 | 0.92 | 0.926 | 0.868 | 0.362 | 0.806 | 0.766 | 0.841 | 0.936 | 0.673 | 0.252 | 0.257 | 0.304 | 0.25 | 0.253 | 0.457 | 0.508 | 0.437 | 0.411 | 0.381 |
| NCI-H1355 | 0.961 | 0.834 | 0.94 | 0.927 | 0.929 | 1.01 | 1.05 | 1.13 | 1.16 | 0.998 | 0.586 | 0.517 | 0.513 | 0.506 | 0.388 | 0.35 | 0.334 | 0.356 | 0.374 | 0.38 |
| NCI-H1437 | 0.824 | 0.949 | 0.882 | 0.777 | 0.618 | 0.861 | 0.916 | 0.951 | 0.97 | 0.834 | 0.425 | 0.431 | 0.405 | 0.4 | 0.352 | 0.557 | 0.563 | 0.566 | 0.477 | 0.56 |
| NCI-H1650 | 0.769 | 0.889 | 0.725 | 0.621 | 0.347 | 0.885 | 1.12 | 0.924 | 0.847 | 0.607 | 0.387 | 0.437 | 0.364 | 0.422 | 0.318 | 0.439 | 0.278 | 0.437 | 0.403 | 0.52 |
| NCI-H1651 | 0.807 | 0.875 | 0.883 | 0.864 | 0.702 | 0.873 | 0.861 | 0.831 | 0.814 | 0.82 | 0.664 | 0.623 | 0.652 | 0.778 | 0.542 | 0.553 | 0.6 | 0.65 | 0.51 | 0.592 |
| NCI-H1666 | 0.722 | 0.8 | 0.48 | 0.474 | 0.476 | 1.08 | 0.953 | 1.05 | 0.852 | 0.46 | 0.684 | 0.696 | 0.623 | 0.561 | 0.428 | 0.641 | 0.712 | 0.797 | 0.58 | 0.664 |
| NCI-H1734 | 1.12 | 0.974 | 1.08 | 0.955 | 0.945 | 0.63 | 0.576 | 0.622 | 0.683 | 0.533 | 0.269 | 0.245 | 0.277 | 0.247 | 0.257 | 0.503 | 0.405 | 0.509 | 0.518 | 0.496 |
